Data from patent US12187715B2, “Small molecule activators of Tie-2” (EyePoint Pharmaceuticals, Inc., priority 2019, dated 2025).
Values joined by “and” are separate entries in the source; they are usually repeats but may differ in a detail not shown here. Identical values can stand only once. “Also recorded” adds a separate entry of the source. Marks after values point to notes of the source that are not given here.

Legend:
Assay type in all cases: physicochemical
[1] = Solubility testing in water by portionwise addition until saturation; details: for Amount (g) of compound added until saturation: added portionwise to 10 mL water; for Physical appearance: after portionwise addition to 10 mL water; for Filtration: filtration of the sample attempted after stirring overnight; for solubility at 4 weeks: pH 7, aqueous buffer, 50% dilution with water, adjusted to pH 7, T = 4 weeks; for solubility at 0 weeks: estimated from weight added; for solubility: Conclusions: suspensions stirred overnight, filtered and analyzed by HPLC, initial
Procedure: The solubility of compounds 2-4 was determined by portionwise addition of the compounds to water until saturation was obtained. Water (10 mL) was added to a 20-mL vial. About 100 mg of Compound 2 was added. The suspension was stirred at room temperature for 20 minutes until the contents became a clear solution. Compound 2 (˜100 mg portionwise) was added repeatedly with 30 min stirring time between the additions. Once a suspension was obtained after continuous stirring for 2 hours, the suspension was stirred overnight. The same procedure was used for the suspension preparations of Compound 3 and Compound 4.
After stirring overnight, filtration of each sample was attempted.
An aliquot of the suspension of Compound 2 was filtered through a 0.22 micron inline syringe filter.
About 1 mL of the aqueous solutions prepared above was diluted with water by 50%. The pH of the 50% diluted solutions was adjusted to pH 7 either by 0.1 N HCl or by 0.1 N NaOH. Solubility values for the three compounds in the solutions/suspensions before and after dilution are given in the in TABLE 3.
The solubility of Compounds 2-4 was determined by portionwise addition of the compounds to water until saturation was obtained. After stirring overnight, the suspensions were filtered and analyzed by HPLC. […] The solubility of Compound 3 was >200 mg/mL. The absolute solubility of Compound 3 was not determined because in the course of analysis, the solution of Compound 3 became too viscous to stir. […] The 50% diluted solutions of Compounds 2-4 were not viscous, and the compounds remained in solution for 4 weeks. […] All of the diluted solutions were easily syringable over 4 weeks' time.

[2] = Physical stability (appearance) of the aqueous solutions standing at room temperature; details: for Gelation or precipitation of undiluted solution: throughout the 4-week study period (Compound 2: over 5 weeks); for Appearance of solution: undiluted
[3] = Syringability testing (200 g weight on BD 1-mL syringe plunger, 27 G needle); details: for Syringability of the saturated solutions (in words): undiluted solutions
Procedure: Syringability testing was carried out by applying 200 g of weight on top of a BD 1-mL syringe plunger and measuring the time required to expel 1 mL of the saturated solutions through a 27 G needle. The times are recorded in TABLE 4. At T=0, 43 seconds were required to expel 1 mL of Compound 2, while 8 seconds were required to expel 1 mL of Compound 4. In contrast, approximately 5 minutes were required to expel only 0.1 mL of Compound 3, based on the very high viscosity of the solution relative to that of the other two.
Syringability test results of the 50% diluted solutions (TABLE 5) indicated a slight increase in viscosity (syringability test for water was 10 sec). All three solutions remained easily syringable.

[4] = HPLC purity analyses of aqueous solutions over time at room temperature (chemical stability)
[5] = water, thermodynamic from solid, Before dilution, T = 0
[6] = water, thermodynamic from solid
[7] = 50% diluted solution, T = 2 week
[8] = 50% diluted solution, T = 3 week
[9] = 50% diluted solution, T = 4 week
[10] = 50% diluted solution, T = 2 day
[11] = 50% diluted solution, T = 3 day
[12] = 50% diluted solution, T = 4 day
[13] = 50% diluted solution, T = 7 day
[14] = saturated (undiluted) solution, T = 0
[15] = saturated (undiluted) solution, T = 1 day
[16] = saturated (undiluted) solution, T = 2 day
[17] = saturated (undiluted) solution, T = 3 day
[18] = 50% diluted samples, room temperature, T = 4 weeks
[19] = undiluted samples, T = 0 (dry sample)
[20] = undiluted samples, room temperature, T = 5 weeks
[21] = undiluted samples, room temperature, T = 1 day

Q: Which “Physical state of the preparation” value ([1]; 50% dilution, T = 4 weeks) does the source give for COC(=O)N(C)[C@@H](Cc1ccccc1)C(=O)N(C)[C@@H](Cc1ccc(NS(=O)(=O)[O-])cc1)c1csc(-c2cccs2)n1.[Na+] [Compound 4, sodium (4-{(S)-2-{(S)-2-[(methoxycarbonyl)(methyl)amino]-N-methyl-3-phenylpropanamido}-2-[2-(thiophen-2-yl)thiazol-4-yl]ethyl}phenyl)sulfamate] here?
A: Its value is “(solution)”.

Q: And the “Physical state of the preparation” value ([1]; Before dilution, T = 0)?
A: The value was “(solution)”.

Q: And the “Solubility value in water” value ([1]; Before dilution, T = 5 weeks, room temperature)?
A: Its value is “No change*”.

Q: And the “Amount (g) of compound added until saturation” value ([1]; room temperature)?
A: Its value is 0.624 g.

Q: What about the Physical appearance [1] of the same molecule?
A: The Physical appearance was “formed a suspension; also recorded: Precipitate”.

Q: And the Filtration [1]?
A: Its Filtration is “proceeded readily and Yes”.

Q: And the solubility at 4 weeks ([1]; water)?
A: Its solubility at 4 weeks is 31 mg/mL.

Q: What about the solubility at 0 weeks [1, 5] of the same molecule?
A: Its solubility at 0 weeks is 62 mg/mL.

Q: What about the solubility [1, 6] of the same molecule?
A: Its solubility is about 58 mg/mL.

Q: What about the “Gelation or precipitation of undiluted solution” value [2] of the same molecule?
A: The value was “No gelation or precipitation”.

Q: What about the Appearance of solution ([2]; T = 0) of the same molecule?
A: Its Appearance of solution is “Clear”.

Q: And the Appearance of solution ([2]; T = 2 week)?
A: Its Appearance of solution is “Clear”.

Q: And the Appearance of solution ([2]; T = 3 week)?
A: Its Appearance of solution is “Clear”.

Q: And the Appearance of solution ([2]; T = 4 week)?
A: The Appearance of solution was “Clear”.

Q: And the Appearance of solution ([2]; T = 1 day)?
A: Its Appearance of solution is “Clear”.

Q: And the Appearance of solution ([2]; T = 2 day)?
A: Its Appearance of solution is “Clear”.

Q: What about the Appearance of solution ([2]; T = 3 day) of the same molecule?
A: Its Appearance of solution is “Clear”.

Q: What about the Appearance of solution ([2]; T = 4 day) of the same molecule?
A: Its Appearance of solution is “Clear”.

Q: And the Appearance of solution ([2]; T = 5 day)?
A: The Appearance of solution was “Clear”.

Q: What about the Appearance of solution ([2]; T = 6 day) of the same molecule?
A: The Appearance of solution was “Clear”.

Q: What about the “Syringability: time to expel 1 mL” value [3, 7] of the same molecule?
A: The value was 13 s.

Q: What about the “Syringability: time to expel 1 mL” value [3, 8] of the same molecule?
A: Its value is 13 s.

Q: What about the “Syringability: time to expel 1 mL” value [3, 9] of the same molecule?
A: Its value is 14 s.

Q: And the “Syringability: time to expel 1 mL” value [3, 10]?
A: The value was 12 s.

Q: What about the “Syringability: time to expel 1 mL” value [3, 11] of the same molecule?
A: The value was 14 s.

Q: And the “Syringability: time to expel 1 mL” value [3, 12]?
A: The value was 15 s.

Q: And the “Syringability: time to expel 1 mL” value [3, 13]?
A: Its value is 12 s.

Q: What about the “Syringability: time to expel 1 mL” value [3, 14] of the same molecule?
A: Its value is 8 s.

Q: And the “Syringability: time to expel 1 mL” value ([3]; saturated (undiluted) solution, T = 2 week)?
A: The value was 13 s.

Q: And the “Syringability: time to expel 1 mL” value ([3]; saturated (undiluted) solution, T = 3 week)?
A: Its value is 12 s.

Q: And the “Syringability: time to expel 1 mL” value ([3]; saturated (undiluted) solution, T = 4 week)?
A: Its value is 13 s.

Q: And the “Syringability: time to expel 1 mL” value [3, 15]?
A: Its value is 12 s.

Q: And the “Syringability: time to expel 1 mL” value [3, 16]?
A: The value was 15 s.

Q: And the “Syringability: time to expel 1 mL” value [3, 17]?
A: The value was 12 s.

Q: What about the “Syringability: time to expel 1 mL” value ([3]; saturated (undiluted) solution, T = 4 day) of the same molecule?
A: The value was 13 s.

Q: What about the “Syringability: time to expel 1 mL” value ([3]; saturated (undiluted) solution, T = 5 day) of the same molecule?
A: The value was 14 s.

Q: What about the “Syringability: time to expel 1 mL” value ([3]; saturated (undiluted) solution, T = 6 day) of the same molecule?
A: Its value is 14 s.

Q: What about the “Syringability of the saturated solutions (in words)” value [3] of the same molecule?
A: Its value is “syringable”.

Q: And the HPLC purity [4, 18]?
A: The HPLC purity was 97.69%.

Q: What about the HPLC purity [4, 19] of the same molecule?
A: Its HPLC purity is 98.72%.

Q: And the HPLC purity [4, 20]?
A: The HPLC purity was 96.53%.

Q: What about the HPLC purity [4, 21] of the same molecule?
A: Its HPLC purity is 98.2%.

Q: What does the source list for COC(=O)N(C)[C@@H](Cc1ccccc1)C(=O)N[C@@H](Cc1ccc(NS(=O)(=O)[O-])cc1)c1csc(-c2cccs2)n1.[Na+] [Compound 2, sodium (4-{(S)-2-{(S)-2-[(methoxycarbonyl)(methyl)amino]-3-phenylpropanamido}-2-[2-(thiophen-2-yl)thiazol-4-yl]ethyl}phenyl)sulfamate]?
A: Physical state of the preparation ([1]; 50% dilution, T = 4 weeks): (solution) ***; Physical state of the preparation ([1]; Before dilution, T = 0): (suspension); Amount (g) of compound added until saturation ([1]; room temperature): 2.53 g and 2.528 g; Physical appearance [1]: formed a suspension; also recorded: Precipitate; Filtration [1]: difficult and Yes; Concentration in clear filtrate as share of the concentration of the initial, supersaturated solution ([1]; suspension filtered through 0.22 micron filter after 5 weeks): 25%; solubility at 4 weeks ([1]; water): ~125 mg/mL; solubility at 0 weeks [1, 5]: ~250 mg/mL; solubility at 5 weeks ([1]; water, thermodynamic from solid, Before dilution, T = 5 weeks, room temperature): 49.5 mg/mL; solubility [1, 6]: ~200 mg/mL; Time until precipitation was observed ([2]; 50% diluted solution): about 2.5 months; Gelation or precipitation of undiluted solution [2]: gradually developed a precipitate; Time until solution started to show haziness ([2]; undiluted solution): 3 days; Appearance of solution ([2]; T = 0): Clear; Appearance of solution ([2]; T = 2 week): Precipitate; Appearance of solution ([2]; T = 3 week): Precipitate; Appearance of solution ([2]; T = 4 week): Precipitate; Appearance of solution ([2]; T = 1 day): Clear; Appearance of solution ([2]; T = 2 day): Clear; Appearance of solution ([2]; T = 3 day): Slightly hazy; Appearance of solution ([2]; T = 4 day): Small precipitate; Appearance of solution ([2]; T = 5 day): Small precipitate; Appearance of solution ([2]; T = 6 day): Precipitate; Syringability: time to expel 1 mL [3, 7]: 14 s; Syringability: time to expel 1 mL [3, 8]: 11 s; Syringability: time to expel 1 mL [3, 9]: 11 s; Syringability: time to expel 1 mL [3, 10]: 10 s; Syringability: time to expel 1 mL [3, 11]: 15 s; Syringability: time to expel 1 mL [3, 12]: 18 s; Syringability: time to expel 1 mL [3, 13]: 15 s; Syringability: time to expel 1 mL [3, 14]: 43 s; Syringability: time to expel 1 mL [3, 15]: 52 s; Syringability: time to expel 1 mL [3, 16]: 65 s; Syringability: time to expel 1 mL [3, 17]: 58 s; Syringability of the saturated solutions (in words) [3]: syringable; HPLC purity [4, 18]: 82%; HPLC purity ([4]; 50% diluted samples, room temperature, T = 6 weeks (reanalysis)): 96.9% and 96.95%; HPLC purity [4, 19]: 99.59%; HPLC purity [4, 20]: 88.99%; HPLC purity ([4]; undiluted samples, room temperature, T = 7 weeks (reanalysis)): 93.9% and 93.93%; HPLC purity [4, 21]: 98.7%
